Data published in patent US20160310454A1, “LIVER X RECEPTOR AGONISTS IN THE TREATMENT OF EMPHYSEMA” (priority 2013, published 2016).
Entries after “also recorded” stand apart in the source; their conditions may differ.

Tests used:
[1] = tested on: mice exposed to cigarette smoke for 10 days; assay: Acute 10 day cigarette smoke exposure model with LXR agonist IP; type: in vivo, mouse
Experimental: (§1) Mice were chronically exposed to smoke in a specially designed chamber (Teague Enterprise, CA). 8 weeks old mice were smoke-exposed for 5 hours a day, 5 days a week for 10 days and 5 months. The total particulate matter (TPM) within the smoking chamber was regulated so that the mice receive a TPM of 100 mg/m^3. TPM was determined by a gravimetric analysis of filter samples taken during the exposure period. Mice (C57BL/6, AKR/J strain) were smoke exposed for 10 days and 5 months and compared to room air exposed controls.
(§2) The BAL fluid was collected by perfusing the lungs with 2 ml of phosphate buffered saline (PBS). The samples were then centrifuged to pellet down the cells and re-suspended in 300 μl of PBS. To obtain the total cell count, cells were counted using a hematocytometer for which, 10 μl of the sample was utilized. To obtain the differential cell count, the slides were prepared using a cytopsin. 150 μl of sample was taken to prepare slides. These slides were stained using Hematoxylin and Eosin (H&E) and a number of regular and foamy like macrophages and lymphocytes counted under the microscope. A foamy like phenotype (Hirama et al., 2007) was identified by examining the sequential increase in macrophage size. Lipid staining was not performed.
(§3) Total RNA was extracted from specimens of lung tissue 0.3 cm^3 in size with the use of the RNeasy kit (Qiagen, Germantown, Md.) (Goldklang et al., 2012). The RNA was then further processed to obtain cDNA, which was used for Real Time (RT) PCR analysis. TaqMan gene expression assays (Applied Biosystems, Carlsbad, Calif.) were performed to assess gene-transcript levels with the use of an ABI Prism 7900HT Sequence Detection System (Applera, Foster City, Calif.) (Goldklang et al., 2012). The following primers were used to check the respective gene expression: ABCA1 (Hs01059118_m1), ABCG1 (Hs00245154_m1), MMP-9 (Mm00442991_m1), IL-1β (Mm00434227_g1), TNF-α (Mm00443260_g1) and GAPDH (4352932E) from TaqMan Gene Expression Assays, Applied Biosystems, CA. β-actin was used as a control since it is a housekeeping gene.
To determine if the mechanisms identified in vitro contributed to changes in smoke induced lung inflammation in vivo, cigarette smoke studies were performed in mice. The treatment of mice exposed to cigarette smoke in an acute 10 day model with 25 mg/kg of intraperitoneal (IP) injections of an LXR agonist daily during the last 4 days of exposure was examined. […] Treatment with the LXR agonist was capable of blocking the already established inflammation and decreased the total inflammatory cell counts (FIG. 15A.). Furthermore, the cigarette smoke induced TNFα protein expression in the BAL was abrogated in mice treated with the LXR agonist (FIG. 15B.). […] Most importantly, cigarette smoke induced MMP-9 expression and activity in the BAL were inhibited by the treatment with the LXR agonist (FIG. 15C-D.), which correlated with inhibition of inflammation and the inflammatory driven increase in TNFα.

[2] = tested on: AKR/J mice exposed to cigarette smoke for 5 months; assay: Chronic 5 months cigarette smoke exposure model, LXR agonist in diet; type: in vivo, mouse; conditions: for cigarette smoke induced protein levels of TNFα in the BAL / level of ABCA1 in BAL and lung tissue / total inflammatory cell counts in BAL: diet 0.015% w/w (30 mg/kg)
Experimental: as §1
Eight week-old AKR/J mice were utilized in the study and exposed to three different conditions: room air (n=8), cigarette smoke (n=8), cigarette smoke with additional treatment with LXR agonist (n=8). The LXR agonist was delivered in the diet and the concentration calculated based on the average mouse weight (30 g) and food consumption (6 g/day). Experimental food was prepared with a 0.015% LXR agonist (T0901317-Cayman Chemicals) in food (w/w) concentration corresponding to 30 mg/kg body weight. Both the control group and the custom drug diet were prepared by Research diets, Inc., New Brunswick, N.J. (Control diet (C11000)—Purina Rodent Chow 5001, Custom Diet (C13861)—Purina Rodent Chow 5001 with 0.015% LXR agonist (T0901317-Cayman Chemicals).
To determine the pulmonary compliance of the lung, a closed chest model was utilized (Foronjy et al., 2005). Respiratory mechanics were measured using a flexiVent (SCIREQ) system (Foronjy et al., 2005). Pentobarbital was used for sedation and succinylcholine for paralysis. The mice then underwent neck dissection and tracheostomy followed by a full assessment of pulmonary mechanics in triplicate utilizing the flexiVent system (Foronjy et al., 2005). After the airway measurements were performed the animals were sacrificed by CO2 inhalation and further utilized for tissue, BAL and lung analysis.
as §2
Histological evaluation of the inflammation was performed on the left lungs which were fixed using 10% formalin. Fixed tissue was stained with H&E and Trichrome and mean linear intercept (MLI) determined as described previously (Foronjy et al., 2008; Foronjy et al., 2005; Foronjy et al., 2001; Foronjy et al., 2010; Foronjy et al., 2008a; Foronjy et al., 2006; Foronjy et al., 2003; Geraghty et al., 2013).
as §3

[3] = 25 mg/kg IP, 10 days smoke exposure, Luminex
[4] = 25 mg/kg IP, 10 days smoke exposure, listed as LXR agonist
[5] = 5 months smoke, mass spectrometry
[6] = 5 months smoke, listed as LXR agonist
[7] = diet 0.015% w/w, 5 months smoke

In the case of `O=S(=O)(c1ccccc1)N(CC(F)(F)F)c1ccc(C(O)(C(F)(F)F)C(F)(F)F)cc1` [T0901317, N-(2,2,2-trifluoroethyl)-N-[4-[2,2,2-trifluoro-1-hydroxy-1-(trifluoromethyl)ethyl]phenyl]-benzenesulfonamide], the “level of ABCA1 in BAL (alveolar macrophages)” value ([1]; 25 mg/kg IP daily, last 4 days of 10 day smoke exposure, listed as LXR agonist) is reported as “re-expression; also recorded: successfully increased”, the “pulmonary inflammation: total inflammatory cell counts in BAL” value ([1]; 25 mg/kg IP, 10 days smoke exposure) is reported as “resolve” and the “cigarette smoke induced TNFα protein expression in the BAL” value [1, 3] is reported as “abrogated”. The “smoke induced increase in IL-1β, IL-17, IFNγ and MCP-1 in the lung tissue” value [1, 3] was “inhibited”, the “cigarette smoke induced MMP-9 expression and activity in the BAL” value [1, 4] was “inhibition; also recorded: inhibited” and the “mRNA levels of TNFα in BAL alveolar macrophages” value [1, 4] was “inhibition; also recorded: decreased”. The “pulmonary inflammation: total inflammatory cell counts in BAL” value [1, 4] was “significantly blocked; also recorded: decreased”, the “collagen airway and vessels deposition” value ([2]; 5 months smoke, Masson Trichrome staining) was “decrease” and the “cigarette smoke induced increase in C14 and C16 ceramides in BAL” value [2, 5] was “reduced”. For the same compound, the “total level of ceramides in the BAL” value [2, 5] was “reduced”, the “smoke induced increase in IFNγ and MCP-1 in the lung” value ([2]; diet 0.015% w/w) was “inhibited” and the “cigarette smoke induced protein levels of TNFα in the BAL” value ([2]; 5 months smoke) was “decreased”. For the same compound, the “level of ABCA1 in BAL and lung tissue” value ([2]; 5 months smoke) was “induced”, the “total inflammatory cell counts in BAL” value ([2]; 5 months smoke) was “decrease” and the “cigarette smoke induced protein levels of TNFα in the BAL” value [2, 6] was “abrogated”. The “level of ABCA1 in BAL and lung tissue” value [2, 6] was “successfully increased; also recorded: restored”, the “total inflammatory cell counts in BAL” value [2, 6] was “significantly decreased” and the “lung structure / emphysema development by mean linear intercept” value [2, 7] was “preserved the lung structure and blocked emphysema development”. The “mRNA expression of MMP-9 and TNFα in the lungs” value [2, 7] was “No significant changes”, the “mRNA levels of MMP-9 in the BAL cells” value [2, 7] was “not significantly altered” and the “alveolar macrophage population exhibiting a foam cell-like phenotype” value ([2]; diet 0.015% w/w, 5 months smoke, differential BAL cell counts) was “significantly reduced”. For the same compound, the lung elastance ([2]; diet 0.015% w/w, 5 months smoke, flexiVent) was “increase”, the lung compliance ([2]; diet 0.015% w/w, 5 months smoke, flexiVent, vs untreated smoke exposed mice) was “decrease” and the “smoke induced MMP-9 activity in the BAL” value ([2]; diet 0.015% w/w, gelatin zymography) was “attenuated”.
